The METLIN SMRT retention time set (Domingo-Almenara et al. 2019)

Assay: gradient 5% acetonitrile 3 min, to 50% in 2 min, to 85% in 15 min, held 3 min, 100 µL/min
Settings: column: Zorbax Extend-C18 2.1 x 50 mm; eluents: water / acetonitrile, 0.1% formic acid
In short: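 Pure standards were analyzed in mixtures of ~100 molecules using HPLC coupled to a quadrupole time-of-flight mass spectrometer, in both positive and negative ionization mode. Separation used a Zorbax Extend-C18 column (2.1 × 50 mm, 1.8 μm) at 100 μL/min, with water and acetonitrile each containing 0.1% formic acid. Dead and dwell volumes were 40 μL and 900 μL, and data were collected over 3 months. Retention time was read from computationally picked adduct peaks, each inspected manually.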
With `Nc1ncnc2c1cnn2C1CCCCC1` the RP-LC retention time was 672 s. In the case of `CC(=O)N1CCc2cc(N3CC(C(=O)Nc4ccccc4Cl)CC3=O)ccc21` (stereo unspecified), the RP-LC retention time is reported as 701 s. `Cc1ccc(CNC(=O)NCCC2CCN(S(=O)(=O)c3ccccc3)CC2)cc1` showed an RP-LC retention time of 877 s. In the case of `CC1OC(O[C@@H]2C=C3CC[C@@H]4[C@H](CC[C@]5(C)[C@@H](c6ccc(=O)oc6)CC[C@]45O)[C@@]3(C)CC2)C(O)C(O)C1O` (stereo partly specified), the RP-LC retention time is reported as 691 s. `Cc1ccc2c(C(=O)NCC(C)C)cc(NC(=O)C3CCC3)cc2n1` showed an RP-LC retention time of 613 s. `CC(C)NC(=O)c1ccc(OCC2CCCN(C(=O)c3ccccc3)C2)cc1` (stereo unspecified) showed an RP-LC retention time of 825 s. With `CCOc1ccc(CCNC(=O)C2CCCN2C(=O)OCc2ccccc2)cc1OCC` (stereo unspecified) the RP-LC retention time was 890 s. For `Cc1cc(C)c(S(=O)(=O)NC2CCCN(c3ccc(=O)n(C)n3)C2)c(C)c1` (stereo unspecified), the RP-LC retention time was 844 s. `COc1ccc(Cl)cc1C(=O)N1CCN(c2cc(-c3cccs3)[nH]n2)CC1` gave an RP-LC retention time of 812 s. `Cc1cc(Cl)ccc1OCc1nc2c3ccccc3ncn2n1` showed an RP-LC retention time of 1060 s. With `O=C(Nc1cc(-c2ccccn2)no1)c1cccc(Cl)c1` the RP-LC retention time was 870 s. `O=C(NCc1ccc(F)cc1F)C1CCCN(c2ncnc3c2oc2ccccc23)C1` (stereo unspecified) showed an RP-LC retention time of 762 s. `CSc1ccccc1-c1nnc(NC(=O)C(c2ccccc2)c2ccccc2)o1` showed an RP-LC retention time of 895 s. Molecule `Cc1noc(C)c1Cc1ccc(C(=O)NCC2Cn3cccc3C(=O)N2C)o1` (stereo unspecified) has an RP-LC retention time of 669 s. In the case of `CCNc1cc(N2CCC(CCC(=O)NCc3ccccc3F)CC2)ncn1`, the RP-LC retention time is reported as 646 s. In the case of `CCn1cc(CCNC(=O)Nc2cc(OC)cc(OC)c2)c2cccnc21`, the RP-LC retention time is reported as 707 s. `Cc1ccccc1-c1noc(Cn2ccnc2C)n1` showed an RP-LC retention time of 622 s. In the case of `Clc1cccc2sc(NCC3CCCO3)nc12` (stereo unspecified), the RP-LC retention time is reported as 811 s. For `CC(C)n1c(=O)oc2cc(-c3noc(-c4ccccc4)n3)ccc21`, the RP-LC retention time was 1060 s. For `CN1C(=O)C2CCCCN2c2ccc(C(=O)N3CCN(C(=O)c4ccco4)CC3)cc21` (stereo unspecified), the RP-LC retention time was 701 s. For `COc1cc(NC(=O)N2CCN(C)c3ncccc32)cc(OC)c1OC`, the RP-LC retention time was 584 s. Molecule `CCc1cc(=O)n(CC(=O)NCc2ccc(OC)cc2)c(N)n1` has an RP-LC retention time of 631 s. Work on `O=c1n(Cc2cc(F)cc(F)c2)nc2c(-c3nc(-c4cccc(F)c4)no3)cccn12` yielded an RP-LC retention time of 1050 s. `Cc1nc(C(=O)N2CCN(Cc3ccc(C)c(C)c3)CC2)c(C)o1` gave an RP-LC retention time of 619 s. For `COc1ccc(Cl)cc1-n1c(SCC(=O)N2CCC(C(N)=O)CC2)nc2ccccc2c1=O`, the RP-LC retention time was 717 s. `O=C(Cn1nc(N2CCCC2)c2ccccc2c1=O)Nc1ccc(F)cc1Cl` gave an RP-LC retention time of 1010 s. Molecule `Cc1nn(CC(=O)N2CCN(c3ccccn3)CC2)c(=O)c2nc(-c3ccccc3)sc12` has an RP-LC retention time of 632 s. Molecule `COc1ccc(-c2nnc(Cc3nc(-c4ccc(F)cc4)no3)o2)cc1` has an RP-LC retention time of 954 s. `Cc1ccc2c(c1)N(Cc1nc(-c3ccc(F)c(Cl)c3)no1)C(=O)CO2` gave an RP-LC retention time of 1200 s. For `COc1cc(NC(=O)NC2CCN(c3nc4ccccc4n(C)c3=O)CC2)cc(OC)c1`, the RP-LC retention time was 801 s. `O=S(=O)(c1ccc(F)c(F)c1)N1CCc2nc(-c3ccc(F)cc3)ncc2C1` showed an RP-LC retention time of 1110 s. With `Cc1cc(C)n(-c2ccc(C(=O)NCc3ccc(F)cc3F)cn2)n1` the RP-LC retention time was 929 s. `COc1ccc(Cl)cc1NC(=O)Cn1c(C)ncc(C(=O)NC2CCCC2)c1=O` showed an RP-LC retention time of 791 s. With `Cc1ccc(Cn2cc(-c3ccncc3)cc2C(=O)NCc2cccs2)cc1` the RP-LC retention time was 734 s. Work on `Cc1sc2ccn(CC(C)C)c(=O)c2c1C(=O)NC1CCN(Cc2ccccc2)CC1` yielded an RP-LC retention time of 658 s. Work on `COc1cc(C(=O)NCC(c2ccc3c(c2)OCO3)N2CCN(C)CC2)cc(OC)c1OC` (stereo unspecified) yielded an RP-LC retention time of 610 s. With `O=C(NCc1ccco1)C(=O)NCC1OCCN1S(=O)(=O)c1ccc([N+](=O)[O-])cc1` (stereo unspecified) the RP-LC retention time was 745 s. `CC(C)NC(=O)c1ccc(OCC2CCN(C(=O)Cc3cccc(F)c3)CC2)cc1` showed an RP-LC retention time of 845 s. `CC(=O)Nc1cccc2c(C(=O)NC3CCCC3)ccnc12` gave an RP-LC retention time of 719 s. With `CCCn1cc(C(=O)NCCCOCC)c(S(=O)(=O)N2CCN(c3ccc(Cl)cc3)CC2)n1` the RP-LC retention time was 1080 s. Molecule `Cc1cc(SCC(=O)N2CCN(c3ccccc3)CC2)nc(-c2ccc(F)cc2)n1` has an RP-LC retention time of 1160 s. With `CC(C)n1cnc(S(=O)(=O)N2CCC(C(=O)NCc3ccc(Br)cc3)CC2)c1` the RP-LC retention time was 782 s. With `COc1ccc(NS(=O)(=O)c2cc(-c3nc(C)c(C(=O)N4CCCC4)s3)n(C)c2)c(OC)c1` the RP-LC retention time was 794 s. For `O=S(=O)(Nc1ccc(F)cc1Cl)c1c[nH]c2ncccc12`, the RP-LC retention time was 740 s. With `CCn1c(C)cc(O)c(C(c2ccccc2[N+](=O)[O-])c2c(O)cc(C)n(CC)c2=O)c1=O` the RP-LC retention time was 884 s. Molecule `Cc1sc2ccn(Cc3ccc(F)cc3)c(=O)c2c1C(=O)NCCCN1CCOCC1` has an RP-LC retention time of 629 s. With `O=C(CN1C(=O)C(C(=O)N2CCCC2)Sc2ccccc21)Nc1ccc(Cl)cc1` (stereo unspecified) the RP-LC retention time was 1070 s. For `Cc1nn(-c2ccccc2)c2c1N(CC(=O)Nc1ccc(F)cc1F)C(=O)CS2`, the RP-LC retention time was 852 s. Work on `O=C(Nc1nc2c(s1)CN(C(=O)c1cnn(-c3ccccc3)n1)CC2)C1CCCO1` (stereo unspecified) yielded an RP-LC retention time of 762 s. `O=C(Cc1ccsc1)N1CCCn2cc(-c3ccccc3F)nc21` showed an RP-LC retention time of 784 s. Molecule `CC(NC(=O)Cn1cnc(-c2noc(-c3ccncc3)n2)c1)c1ccccc1` (stereo unspecified) has an RP-LC retention time of 678 s. `Cc1ccc2c(c1)N(Cc1nc(C3CC3)no1)N=C(C(=O)N1CCC(C)CC1)S2(=O)=O` showed an RP-LC retention time of 992 s. With `COc1ccc(NC(=O)Nc2cnc3c(c2)CCC3)cc1` the RP-LC retention time was 516 s. In the case of `COc1ccccc1OCC1c2ccsc2CCN1C(=O)CN(C(=O)NC(C)C)C(C)(C)C` (stereo unspecified), the RP-LC retention time is reported as 595 s. In the case of `CNC(=O)[C@@H]1CN(C(=O)c2cncc(Br)c2)C[C@H]1COC`, the RP-LC retention time is reported as 576 s. Molecule `CC(C)C(=O)N1CCOc2ccc(N(C)C)cc2C1` has an RP-LC retention time of 575 s. In the case of `CCOc1ccc(N2CC(c3nnc(NC(=O)c4ccc(Br)cc4)o3)CC2=O)cc1` (stereo unspecified), the RP-LC retention time is reported as 805 s. `COc1ccc(Cl)cc1S(=O)(=O)N1CCCC(C)(C(=O)NCc2ccccc2)C1` (stereo unspecified) showed an RP-LC retention time of 981 s. For `O=C(Nc1ccc(Cl)cc1)Nc1c(-c2ccncc2)nc2ccccn12`, the RP-LC retention time was 631 s. `Fc1ccccc1-c1noc(N2CCN(c3ccccn3)CC2)n1` gave an RP-LC retention time of 649 s. For `CC(C)CCn1c(CCCC(=O)N2CCC(C(N)=O)CC2)nc2cccnc21`, the RP-LC retention time was 598 s. Work on `C=CCn1c(=O)c2ccccc2n(Cc2nc(-c3ccc(F)c(Br)c3)no2)c1=O` yielded an RP-LC retention time of 1170 s. `Cc1ccc(CSc2ncnc3nc[nH]c23)cc1` showed an RP-LC retention time of 774 s. Work on `O=C(Nc1cc(F)ccc1F)c1cc2sccc2n1Cc1ccc(Cl)cc1` yielded an RP-LC retention time of 1280 s. Work on `COc1ccc(C2=NC3(CCN(C(C)C)CC3)NC(c3ccccc3O)C2)cc1` (stereo unspecified) yielded an RP-LC retention time of 592 s. In the case of `O=C(Cc1cccc(Cl)c1)NC1CCN(c2cc(-c3cccs3)[nH]n2)C1` (stereo unspecified), the RP-LC retention time is reported as 702 s.
